In assay [1] the target is T1, FEN-1 (flap endonuclease-1) purified from the nuclear fraction of mouse pre-B cell line 1-8 (Mus musculus, UniProt P39749). As to the kind of experiment: biochemical. To be noted: 0.5 h, read-out: % Activity (exonuclease activity, FEN-1 activity versus divalent metal ion).
Protocol: All purification steps were carried out at 0°-4° C. Six liters of the murine pre-B cell line, 1-8 (Alt et al., 1984), were grown to 2×10^6 cells/ml in RPMI 1640, 10% FBS, 50 μM β-mercaptoethanol (βME), 100 μg/ml penicillin-streptomycin in spinner flasks. Eighteen liters of RPMI 1640 and 100 μg/ml penicillin-streptomycin were then added, and the cells were allowed to grow for an additional 24 h. The cells were harvested at a cell density of 1-1.5×10^6 cells/ml and spun at 1000 g in a Beckman JA-10 rotor for 5 min. The cell pellet was then washed with 500 ml of ice-cold PBS (5 mM NaPi pH 7.4, 137 mM NaCl, 3 mM KCl) supplemented with 1 g/l MgCl2 and pelleted as above. Nuclei were isolated by allowing the cell pellet to swell in 100 ml Buffer A (10 mM HEPES-KOH pH 7.8, 1.5 mM MgCl2, 10 mM KCl, 0.5 mM DTT) for 10 min on ice. The swollen cells were spun for 5 min at 2500 g in a Beckman J6B centrifuge, resuspended in 40 ml Buffer A and homogenized with 20 strokes of the B-pestle in a Dounce homogenizer. The nuclei were collected by centrifugation at 2500 g in a Beckman J6B for 5 min and lysed by adding 40 ml of Buffer B (20 mM EPES-KOH pH 7.8, 0.42M NaCl, 25% glycerol, 1.5 mM MgCl2, 0.2 mM EDTA, 0.5 mM DTT, 0.5 mM PMSF). Nuclear lysis was completed with 20 strokes of the B-pestle in a Dounce homogenizer. […]
Assay [2] deals with T1, FEN-1 (flap endonuclease-1) purified from the nuclear fraction of mouse pre-B cell line 1-8. The assay can be described thus: biochemical. To be noted: read-out: % Activity (endonuclease activity, FEN-1 activity versus divalent metal ion).
Description: (§1) FEN-1 was purified from the nuclear fraction of a mouse pre-B cell line. The chromatographic behavior of FEN-1 was monitored using Flap Substrate 1 in the standard FEN-1 endonuclease assay.
Assay [3] has the same target. To be noted: replacement of MgCl2 with 5 mM EDTA.
Description: as §1

The structures appear in SMILES notation. Where two headings read alike, the source gives them in different places. Some results are limits rather than exact numbers.

T1 sequence (P39749 whole entry): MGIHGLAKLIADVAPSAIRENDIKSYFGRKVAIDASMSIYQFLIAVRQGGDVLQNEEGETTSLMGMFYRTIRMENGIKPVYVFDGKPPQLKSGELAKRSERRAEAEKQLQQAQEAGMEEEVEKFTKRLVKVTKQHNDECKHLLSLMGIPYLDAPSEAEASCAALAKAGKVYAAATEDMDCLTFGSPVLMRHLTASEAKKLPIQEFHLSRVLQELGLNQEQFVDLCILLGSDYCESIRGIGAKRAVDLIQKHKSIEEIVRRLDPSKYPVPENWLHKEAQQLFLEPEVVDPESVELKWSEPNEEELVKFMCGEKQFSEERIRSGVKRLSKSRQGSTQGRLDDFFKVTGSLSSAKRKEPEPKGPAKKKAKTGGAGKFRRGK

`O=C(O)CN(CCN(CC(=O)O)CC(=O)O)CC(=O)O` [EDTA]: the activity at 5000 µM in assay [1] is < 0.5%; in assay [2], < 1%. Moreover, the “Inhibition of the flap cleavage reaction” value in assay [3] is given as “completely inhibited”.

Source of the values: patent US5874283A, “Mammalian flap-specific endonuclease” (Harrington; John Joseph, priority 1995, dated 1999).
